# Laboratory results as given in patent US20150299721A1, “BIOMASS PRODUCTION INCREASING GENE AND TRANSGENIC PLANT USING SAME” (POSTECH ACADEMY-INDUSTRY FOUNDATION, priority 2012, published 2015).
# Tested on: BAT1 gene-overexpressing plant
# Assay: Restoring of hypocotyl height of BAT1 gene-overexpressing plant by brassinosteroid in the medium
# Format: in vivo, Arabidopsis thaliana
# Conditions: brassinosteroid added at 0.3 μM or 3 μM to 0.5x B5 medium, measured after 7 days (FIG. 5A)
# Procedure: The wild type and the BAT1 gene-overexpressing plant were vertically grown in a greenhouse whose temperature was regulated at about 23° C. under a long-day condition having a 24-hour period of 16-hour light condition/8-hour dark condition in 0.5× B5 media. A hypocotyl of the vertical-grown plant was distinctively shown in the BAT1 gene-overexpressing plant. Various brassinosteroids were treated at various concentrations, and a height of the hypocotyl was measured after 7 days. As the brassinosteroid, brassinolide (BL), castasterone (CS), teasterone (TE), or typhasterol (TY) was added at a concentration of 0.3 μM or 3 μM to the medium.
row,Structure (SMILES),length (height) of hypocotyl
1,CC(C)[C@H](C)[C@@H](O)[C@H](O)[C@@H](C)[C@H]1CC[C@H]2[C@@H]3CC(=O)[C@H]4C[C@H](O)[C@H](O)C[C@]4(C)[C@H]3CC[C@]12C [castasterone],significantly increased
2,CC(C)[C@H](C)[C@@H](O)[C@H](O)[C@@H](C)[C@H]1CC[C@H]2[C@@H]3CC(=O)[C@H]4C[C@H](O)CC[C@]4(C)[C@H]3CC[C@]12C [typhasterol],significantly increased
3,CC(C)[C@H](C)[C@@H](O)[C@H](O)[C@@H](C)[C@H]1CC[C@H]2[C@@H]3COC(=O)[C@H]4C[C@H](O)[C@H](O)C[C@]4(C)[C@H]3CC[C@]12C [brassinolide],significantly increased
